# Reference: PubChem BioAssay AID256 (DTP/NCI, 2004)
# Several values for one entry are separate records, joined by “and”; a condition that tells them apart may be missing. Equal entries are not always repeated. Inconclusive results and toxic doses are left out.
# System: CD2F1 mice, L1210 leukemia ip, survival T/C
# Assay: NCI In Vivo Anticancer Drug Screen. Data for tumor model L1210 Leukemia (intraperitoneal) in CD2F1 (CDF1) mice
# Details: higher = longer survival
# Method in brief: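 Each value reflects a quotient of treated over vehicle control outcomes in mice with a transplanted tumor.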
# [1] = endpoint: mean survival time, dose: 100.0 mg/kg/injection, schedule: Q01DX001 (ip), vehicle: saline with Tween-80
# [2] = endpoint: mean survival time, dose: 200.0 mg/kg/injection, schedule: Q01DX001 (ip), vehicle: saline with Tween-80
# [3] = endpoint: mean survival time, dose: 400.0 mg/kg/injection, schedule: Q01DX001 (ip), vehicle: saline with Tween-80
# [4] = endpoint: mean survival time, dose: 100.0 mg/kg/injection, schedule: Q01DX009 (ip), vehicle: saline with Tween-80
# [5] = endpoint: mean survival time, dose: 200.0 mg/kg/injection, schedule: Q01DX009 (ip), vehicle: saline with Tween-80
# [6] = endpoint: mean survival time, dose: 400.0 mg/kg/injection, schedule: Q01DX009 (ip), vehicle: saline with Tween-80
# [7] = endpoint: mean survival time, dose: 25.0 mg/kg/injection, schedule: Q01DX009 (ip), vehicle: saline
# [8] = endpoint: mean survival time, dose: 50.0 mg/kg/injection, schedule: Q01DX009 (ip), vehicle: saline
# [9] = endpoint: mean survival time, dose: 100.0 mg/kg/injection, schedule: Q01DX001 (ip), vehicle: saline
# [10] = endpoint: mean survival time, dose: 200.0 mg/kg/injection, schedule: Q01DX001 (ip), vehicle: saline
# [11] = endpoint: mean survival time, dose: 400.0 mg/kg/injection, schedule: Q01DX001 (ip), vehicle: saline
# [12] = endpoint: mean survival time, dose: 100.0 mg/kg/injection, schedule: Q04DX003 (ip), vehicle: saline with Tween-80
# [13] = endpoint: mean survival time, dose: 200.0 mg/kg/injection, schedule: Q04DX003 (ip), vehicle: saline with Tween-80
# [14] = endpoint: mean survival time, dose: 400.0 mg/kg/injection, schedule: Q04DX003 (ip), vehicle: saline with Tween-80
compound,measurement,setting,value
CN(C)N=Nc1ccc(SC#N)cc1C(N)=O,T/C,"endpoint: mean survival time, dose: 18.8 mg/kg/injection, schedule: Q01DX009 (ip), vehicle: Klucel (hydroxypropylcellulose) (HPC)",93 % of control and 103 % of control
same,T/C,"endpoint: mean survival time, dose: 37.5 mg/kg/injection, schedule: Q01DX009 (ip), vehicle: Klucel (hydroxypropylcellulose) (HPC)",97 % of control and 106 % of control
same,T/C,"endpoint: mean survival time, dose: 75.0 mg/kg/injection, schedule: Q01DX009 (ip), vehicle: Klucel (hydroxypropylcellulose) (HPC)",107 % of control and 108 % of control
same,T/C,"endpoint: mean survival time, dose: 150.0 mg/kg/injection, schedule: Q01DX009 (ip), vehicle: Klucel (hydroxypropylcellulose) (HPC)",88 % of control and 110 % of control
CC1(C)C(=O)OC(=O)C(C)(Br)C1(C)C (stereo not given),T/C,[1],104 % of control
same,T/C,[2],96 % of control
same,T/C,[3],101 % of control
COc1cc2c3c(c1)-c1c(ccc(OC)c1OC)CC3N(CCCl)CC2 (stereo not given),T/C,"endpoint: mean survival time, dose: 25.0 mg/kg/injection, schedule: Q04DX003 (ip), vehicle: water",98 % of control
same,T/C,"endpoint: mean survival time, dose: 50.0 mg/kg/injection, schedule: Q04DX003 (ip), vehicle: water",105 % of control
CC(C)(CO)C(O)C(=O)NC1CCCCC1 (stereo not given),T/C,[1],98 % of control
same,T/C,[4],102 % of control
same,T/C,[2],102 % of control
same,T/C,[5],100 % of control
same,T/C,[3],94 % of control
same,T/C,[6],97 % of control
CCOC(=O)C1CC(=O)C2/C(=C(\O)c3ccccc3)C=C([N+](=O)[O-])C1C2[N+](=O)[O-] (stereo not given),T/C,"endpoint: mean survival time, dose: 100.0 mg/kg/injection, schedule: Q04DX002 (ip), vehicle: saline with Tween-80",94 % of control
same,T/C,"endpoint: mean survival time, dose: 200.0 mg/kg/injection, schedule: Q04DX002 (ip), vehicle: saline with Tween-80",94 % of control
same,T/C,"endpoint: mean survival time, dose: 400.0 mg/kg/injection, schedule: Q04DX002 (ip), vehicle: saline with Tween-80",96 % of control
COc1ccc(OC)c(NC(=O)Nc2ccc(NC(C)=O)cc2)c1,T/C,[4],91 % of control
same,T/C,[5],95 % of control
same,T/C,[6],91 % of control
CC(C)(O)CN,T/C,"endpoint: mean survival time, dose: 25.0 mg/kg/injection, schedule: Q01DX009 (ip), vehicle: saline with Tween-80",95 % of control
same,T/C,"endpoint: mean survival time, dose: 50.0 mg/kg/injection, schedule: Q01DX009 (ip), vehicle: saline with Tween-80",98 % of control
same,T/C,[4],91 % of control
NCC1CCNCC1,T/C,"endpoint: mean survival time, dose: 25.0 mg/kg/injection, schedule: Q04DX002 (ip), vehicle: saline",94 % of control
same,T/C,"endpoint: mean survival time, dose: 50.0 mg/kg/injection, schedule: Q04DX002 (ip), vehicle: saline",97 % of control
same,T/C,"endpoint: mean survival time, dose: 100.0 mg/kg/injection, schedule: Q04DX002 (ip), vehicle: saline",91 % of control
same,T/C,"endpoint: mean survival time, dose: 200.0 mg/kg/injection, schedule: Q04DX002 (ip), vehicle: saline",102 % of control
CC(=O)OCC1OC(N2C(=O)/C(=C/c3ccc(Cl)cc3)SC2=S)C(OC(C)=O)C(OC(C)=O)C1OC(C)=O (stereo not given),T/C,"endpoint: mean survival time, dose: 3.13 mg/kg/injection, schedule: Q01DX005 (ip), vehicle: distilled water + Tween-80",102 % of control
same,T/C,"endpoint: mean survival time, dose: 6.25 mg/kg/injection, schedule: Q01DX005 (ip), vehicle: distilled water + Tween-80",96 % of control
same,T/C,"endpoint: mean survival time, dose: 12.5 mg/kg/injection, schedule: Q01DX005 (ip), vehicle: distilled water + Tween-80",106 % of control
same,T/C,"endpoint: mean survival time, dose: 25.0 mg/kg/injection, schedule: Q01DX005 (ip), vehicle: distilled water + Tween-80",95 % of control
O=NNc1ccc2cccnc2n1,T/C,"endpoint: median survival time, dose: 12.5 mg/kg/injection, schedule: Q01DX005 (ip), vehicle: water",153 % of control
same,T/C,"endpoint: median survival time, dose: 25.0 mg/kg/injection, schedule: Q01DX005 (ip), vehicle: water",162 % of control
same,T/C,"endpoint: median survival time, dose: 50.0 mg/kg/injection, schedule: Q01DX005 (ip), vehicle: water",164 % of control
same,T/C,"endpoint: median survival time, dose: 60.0 mg/kg/injection, schedule: Q01DX005 (ip), vehicle: water",223 % of control
same,T/C,"endpoint: median survival time, dose: 100.0 mg/kg/injection, schedule: Q01DX005 (ip), vehicle: water",175 % of control and 181 % of control
same,T/C,"endpoint: median survival time, dose: 166.66 mg/kg/injection, schedule: Q01DX005 (ip), vehicle: water",105 % of control
COc1cc2c(cc1OC)-c1cc(C)c3cc(OC)c(OC)cc3[n+]1CC2,T/C,"endpoint: mean survival time, dose: 25.0 mg/kg/injection, schedule: Q01DX009 (ip), vehicle: other",109 % of control
same,T/C,"endpoint: mean survival time, dose: 50.0 mg/kg/injection, schedule: Q01DX009 (ip), vehicle: other",115 % of control
same,T/C,"endpoint: mean survival time, dose: 100.0 mg/kg/injection, schedule: Q01DX009 (ip), vehicle: other",109 % of control
Cc1cccc(OCC(O)CN2CC2)c1 (stereo not given),T/C,"endpoint: median survival time, dose: 12.5 mg/kg/injection, schedule: Q01DX005 (ip), vehicle: saline with Tween-80",97 % of control and 107 % of control
same,T/C,"endpoint: median survival time, dose: 25.0 mg/kg/injection, schedule: Q01DX005 (ip), vehicle: saline with Tween-80",115 % of control and 111 % of control
same,T/C,"endpoint: median survival time, dose: 36.0 mg/kg/injection, schedule: Q01DX005 (ip), vehicle: saline with Tween-80",104 % of control
same,T/C,"endpoint: median survival time, dose: 50.0 mg/kg/injection, schedule: Q01DX005 (ip), vehicle: saline with Tween-80",113 % of control and 108 % of control
same,T/C,"endpoint: median survival time, dose: 60.0 mg/kg/injection, schedule: Q01DX005 (ip), vehicle: saline with Tween-80",113 % of control
same,T/C,"endpoint: median survival time, dose: 100.0 mg/kg/injection, schedule: Q01DX005 (ip), vehicle: saline with Tween-80",106 % of control
same,T/C,"endpoint: median survival time, dose: 166.66 mg/kg/injection, schedule: Q01DX005 (ip), vehicle: saline with Tween-80",110 % of control
N=c1nc2n(cc1F)[C@@H]1O[C@H](CO)[C@@H](O)[C@@H]1O2,T/C,"endpoint: mean survival time, dose: 17.0 mg/kg/injection, schedule: Q04DX003 (ip), vehicle: saline",119 % of control
same,T/C,[7],155 % of control
same,T/C,[8],162 % of control and 188 % of control
same,T/C,"endpoint: mean survival time, dose: 68.0 mg/kg/injection, schedule: Q04DX003 (ip), vehicle: saline",150 % of control
same,T/C,[9],110 % of control
same,T/C,"endpoint: mean survival time, dose: 100.0 mg/kg/injection, schedule: Q01DX009 (ip), vehicle: saline",193 % of control and 250 % of control
same,T/C,[10],117 % of control
same,T/C,"endpoint: mean survival time, dose: 200.0 mg/kg/injection, schedule: Q01DX009 (ip), vehicle: saline",224 % of control and 303 % of control
same,T/C,[11],120 % of control
same,T/C,"endpoint: mean survival time, dose: 400.0 mg/kg/injection, schedule: Q01DX009 (ip), vehicle: saline",305 % of control and 331 % of control
same,T/C,"endpoint: mean survival time, dose: 800.0 mg/kg/injection, schedule: Q01DX009 (ip), vehicle: saline",239 % of control
same,T/C,"endpoint: median survival time, dose: 16.0 mg/kg/injection, schedule: Q01DX005 (ip), vehicle: saline",124 % of control
same,T/C,"endpoint: median survival time, dose: 256.0 mg/kg/injection, schedule: Q01DX005 (ip), vehicle: saline",216 % of control
same,T/C,"endpoint: median survival time, dose: 512.0 mg/kg/injection, schedule: Q01DX005 (ip), vehicle: saline",349 % of control
CN(C)C(=O)OCC[N+](C)(C)CCCCCCCCCC[N+](C)(C)CCOC(=O)N(C)C,T/C,"endpoint: mean survival time, dose: 1.25 mg/kg/injection, schedule: Q04DX003 (ip), vehicle: saline",103 % of control
same,T/C,"endpoint: mean survival time, dose: 2.5 mg/kg/injection, schedule: Q04DX003 (ip), vehicle: saline",97 % of control
CC1SC(=S)NC1=O (stereo not given),T/C,"endpoint: mean survival time, dose: 100.0 mg/kg/injection, schedule: Q04DX003 (ip), vehicle: saline sonified",93 % of control
same,T/C,"endpoint: mean survival time, dose: 200.0 mg/kg/injection, schedule: Q04DX003 (ip), vehicle: saline sonified",113 % of control
same,T/C,"endpoint: mean survival time, dose: 400.0 mg/kg/injection, schedule: Q04DX003 (ip), vehicle: saline sonified",96 % of control
O=c1c2ncn(C3CC(O)C(O)C(CO)O3)c2ncn1C1CC(O)C(O)C(CO)O1 (stereo not given),T/C,"endpoint: mean survival time, dose: 12.5 mg/kg/injection, schedule: Q01DX005 (ip), vehicle: water",108 % of control
same,T/C,"endpoint: mean survival time, dose: 25.0 mg/kg/injection, schedule: Q01DX005 (ip), vehicle: water",97 % of control
same,T/C,"endpoint: mean survival time, dose: 50.0 mg/kg/injection, schedule: Q01DX005 (ip), vehicle: water",100 % of control
same,T/C,"endpoint: mean survival time, dose: 100.0 mg/kg/injection, schedule: Q01DX005 (ip), vehicle: water",97 % of control
same,T/C,"endpoint: mean survival time, dose: 200.0 mg/kg/injection, schedule: Q01DX005 (ip), vehicle: water",97 % of control
CNC(=O)Oc1cccc(NC(=O)OC(C)C(C)C)c1 (stereo not given),T/C,[12],98 % of control
same,T/C,[13],90 % of control
same,T/C,[14],96 % of control
NC(N)=Nc1ccc(C(=O)Oc2ccc([N+](=O)[O-])cc2)cc1,T/C,[4],112 % of control
same,T/C,[5],102 % of control
CC(C)(C)OC(=O)C12CCCC(C(=O)OC(C)(C)C)(OO1)O2,T/C,[9],95 % of control
same,T/C,[10],95 % of control
same,T/C,[11],101 % of control
C1CCC2C(C1)NC1CCCCC12 (stereo not given),T/C,[7],89 % of control
same,T/C,[8],89 % of control
O=[N+]([O-])c1ccc(N=Nc2ccccc2)cc1,T/C,[12],90 % of control
same,T/C,[13],92 % of control
same,T/C,[14],92 % of control
